Values after ≈ are worked out from the molar mass of the structure shown. Structures can show the parent of a compound that is named as a salt. Where two headings read alike, the source gives them in different places.

Broadly, the MIC is the smallest concentration in the dilution series that meets the test's criterion for growth inhibition.

Holding throughout (assay): Antibacterial activity, microbroth dilution method (MIC)
(In broth dilution the organism is exposed to a series of concentrations in liquid medium.)

For test [1], the system named is super sensitive Gram-negative Escherichia coli (E. coli) BAS849. The class given is cell-based. As to conditions: Escherichia coli, read-out: MIC, E. coli BAS849. The procedure, abridged:
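Each strain is exposed to test compound in a microbroth dilution series; visible growth is scored macroscopically, and the lowest growth-free concentration is recorded as MIC in μg/mL.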

Test [2] concerns Gram-positive Staphylococcus aureus (S. aureus) 29213. The class given is cell-based. The conditions noted are these: Staphylococcus aureus, Gram-positive S. aureus 29213. The procedure, abridged: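 Using broth microdilution, MIC endpoints (μg/mL) mark where visible growth no longer appears; the panel spans sensitive and control Gram-negative strains plus a Gram-positive strain.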

Test [3] relates to control Gram-negative E. coli 25922 strain. The class given is cell-based, Escherichia coli. The conditions noted are these: Escherichia coli. Summed up: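 Values are MICs (μg/mL): the smallest drug amount at which macroscopically visible bacterial growth is absent under assay conditions, from a microdilution method in broth.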
Where [4] appears, read: super sensitive Gram-negative E. coli BAS849, microbroth dilution.

Take `Cl.Cn1c(CNC2(C)CC2)cc2cc3c(cc21)CCCc1c-3[nH]c(=O)c(C(=O)O)c1O` [Cpd 33, 4-hydroxy-9-methyl-10-(((1-methylcyclopropyl)amino)methyl)-2-oxo-1,2,5,6,7,9-hexahydropyrido[3′,2′:6,7]cyclohepta[1,2-f]indole-3-carboxylic acid hydrochloride]: the MIC is under 1 µg/mL in test [1] (setting [4]), 3.5 to 12.5 µg/mL in test [2] and under 1 µg/mL in test [3].

`Cl.Cn1c(CNC(C)(C)C)cc2cc3c(cc21)CCCc1c-3[nH]c(=O)c(C(=O)O)c1O` [Cpd 27, 10-((tert-butylamino)methyl)-4-hydroxy-9-methyl-2-oxo-1,2,5,6,7,9-hexahydropyrido[3′,2′:6,7]cyclohepta[1,2-f]indole-3-carboxylic acid hydrochloride]: the results for the MIC in test [1] (setting [4]), in test [2] and in test [3] were under 1 µg/mL, 1 to 3.5 µg/mL and under 1 µg/mL, respectively.

As to `Cl.Cn1c(CNCc2ccccc2)cc2cc3c(cc21)CCCc1c-3[nH]c(=O)c(C(=O)O)c1O` [Cpd 34, 10-((benzylamino)methyl)-4-hydroxy-9-methyl-2-oxo-1,2,5,6,7,9-hexahydropyrido[3′,2′:6,7]cyclohepta[1,2-f]indole-3-carboxylic acid hydrochloride], the figures for the MIC in test [1] (setting [4]), in test [2] and in test [3] were under 1 µg/mL, 1 to 3.5 µg/mL and 1 to 3.5 µg/mL, respectively.

On to `N[C@@H]1[C@H]2CN(c3ccc4c(c3)CCCc3c-4[nH]c(=O)c(C(=O)O)c3O)C[C@@H]12` [Cpd 9, 9-((cis,cis)-6-amino-3-azabicyclo[3.1.0]hexan-3-yl)-4-hydroxy-2-oxo-2,5,6,7-tetrahydro-1H-benzo[6,7]cyclohepta[1,2-b]pyridine-3-carboxylic acid trifluoroacetate], for which the MIC in test [1] was under 1 µg/mL; in test [2] it was 3.5 to 12.5 µg/mL; in test [3], under 1 µg/mL.

Take `Cl.Cn1c(CN2CCCCC2)cc2cc3c(cc21)CCCc1c-3[nH]c(=O)c(C(=O)O)c1O` [Cpd 40, 4-hydroxy-9-methyl-2-oxo-10-(piperidin-1-ylmethyl)-1,2,5,6,7,9-hexahydropyrido[3′,2′:6,7]cyclohepta[1,2-f]indole-3-carboxylic acid hydrochloride]: the MIC in test [1] (setting [4]) was under 1 µg/mL; in test [2], 3.5 to 12.5 µg/mL; in test [3], 1 to 3.5 µg/mL.

Turning to `COCC(C)NCc1cc2cc3c(cc2n1C)OCCc1c-3[nH]c(=O)c(C(=O)O)c1O.Cl` (stereo not drawn) [Cpd 184, 4-hydroxy-10-(((1-methoxypropan-2-yl)amino)methyl)-9-methyl-2-oxo-2,5,6,9-tetrahydro-1H-pyrido[2′,3′:4,5]oxepino[3,2-f]indole-3-carboxylic acid hydrochloride], the MIC was under 1 µg/mL in test [1] (setting [4]), 12.5 to 150 µg/mL in test [2] and 3.5 to 12.5 µg/mL in test [3].

Regarding `CCNCc1cc2cc3c(cc2n1C)OCC(C)c1c-3[nH]c(=O)c(C(=O)O)c1O.Cl` (stereo not drawn) [Cpd 92, 10-((ethylamino)methyl)-4-hydroxy-5,9-dimethyl-2-oxo-2,5,6,9-tetrahydro-1H-pyrido[2′,3′:4,5]oxepino[3,2-f]indole-3-carboxylic acid hydrochloride], the MIC in test [1] (setting [4]) was in the range of 1 to 3.5 µg/mL; in test [2], 12.5 to 150 µg/mL; in test [3] it was 3.5 to 12.5 µg/mL.

Consider `Cn1c2c(c(O)c(C(=O)O)c1=O)CCCc1cc3c(ccn3C)cc1-2` [Cpd 134, 4-hydroxy-1,9-dimethyl-2-oxo-1,2,5,6,7,9-hexahydropyrido[3′,2′:6,7]cyclohepta[1,2-f]indole-3-carboxylic acid], for which the figures for the MIC in test [1] (setting [4]), in test [2] and in test [3] were under 1 µg/mL, 3.5 to 12.5 µg/mL (≈ 10.3 to 36.9 µM) and 12.5 to 150 µg/mL (≈ 36.9 to 443 µM), respectively.

Turning to `Cl.Cn1c(CNC2CC2)cc2cc3c(cc21)CCCc1c-3[nH]c(=O)c(C(=O)O)c1O` [Cpd 36, 10-((cyclopropylamino)methyl)-4-hydroxy-9-methyl-2-oxo-1,2,5,6,7,9-hexahydropyrido[3′,2′:6,7]cyclohepta[1,2-f]indole-3-carboxylic acid hydrochloride], the MIC is under 1 µg/mL in test [1] (setting [4]), 3.5 to 12.5 µg/mL in test [2] and 1 to 3.5 µg/mL in test [3].
